Test results from patent publication US10609945B2, “Compositions comprising 2FL and LNnT to control food intake and growth in infants or young children” (NESTEC S.A., priority 2016, dated 2020).

Experiment: Relative intake (total food intake/average body weight) of IUGR rats
Assay type: in vivo
Conditions: diet with 4.5 wt % HMO(s), vs IUGR rats control; for relative intake, period day 22-day 29: FIG. 4A/5A; for relative intake, period day 22-day 36: FIG. 4B/5B
Source text: A wide group of pregnant female rats were bought from Charles River laboratories. Some of them were submitted to food restriction of 60% during the last 10 days of gestation. Immediately after birth (d=1), the born rat pups—subjects of the experiment—were split intoseveral groups: • Normal rats (reference): no IUGR (Intrauterine growth restriction) during their mothers' pregnancy (n=20). • IUGR rats (control): […] LNnT or 2FL+LNnT (in a weight ratio 2:1), see details below. All rat pups were fed from birth (d=1) up to 57 days (d=57) based on the following protocol: • day 1-day 6: all groups of rats were nursed by dam (mothers' milk only) • day 7-day 21: all rats were nursed by dam (mothers' milk only). […] To assess the efficiency of the feeding of these rats, especially tosee whether the feeding imply a healthy growth or not, several parameters were calculated, including: • the lean mass: it corresponds to the amount of weight in the body composition that is not fat. It was measured by magnetic resonance imaging. • the relative intake: it corresponds to the total food intake divided by the average body weight of a specified period. It was assessed for several periods during the entire experiment (so the total of food ingested was measured in continuous during several days to make the calculation). Significance was assessed using the […].

CC(=O)N[C@H]1[C@H](O[C@H]2[C@@H](O)[C@@H](CO)O[C@@H](O[C@H]3[C@H](O)[C@@H](O)C(O)O[C@@H]3CO)[C@@H]2O)O[C@H](CO)[C@@H](O[C@@H]2O[C@H](CO)[C@H](O)[C@H](O)[C@H]2O)[C@@H]1O (mixture of isomers) [LNnT, lacto-N-neotetraose]
relative intake, period day 22-day 29: significantly increased | relative intake, period day 22-day 36: significantly increased

2′-fucosyllactose [2FL]
relative intake, period day 22-day 29: significantly increased | relative intake, period day 22-day 36: significantly increased
